Earlier results on twelve compounds are cited in PMC9516332 (Frontiers in Oncology, 2022).

Where two headings read alike, the source gives them in different places.

Conditions in all cases: cited from earlier work
The target in series [1] is panel of 255 wild-type kinases (Homo sapiens, UniProt P23458).
The target of series [2] is panel of 255 wild-type kinases (Homo sapiens, UniProt P48730).
For series [3], the target named is T1, panel of 255 wild-type kinases (Homo sapiens, UniProt P52333).
T1 sequence (P52333 1-1124): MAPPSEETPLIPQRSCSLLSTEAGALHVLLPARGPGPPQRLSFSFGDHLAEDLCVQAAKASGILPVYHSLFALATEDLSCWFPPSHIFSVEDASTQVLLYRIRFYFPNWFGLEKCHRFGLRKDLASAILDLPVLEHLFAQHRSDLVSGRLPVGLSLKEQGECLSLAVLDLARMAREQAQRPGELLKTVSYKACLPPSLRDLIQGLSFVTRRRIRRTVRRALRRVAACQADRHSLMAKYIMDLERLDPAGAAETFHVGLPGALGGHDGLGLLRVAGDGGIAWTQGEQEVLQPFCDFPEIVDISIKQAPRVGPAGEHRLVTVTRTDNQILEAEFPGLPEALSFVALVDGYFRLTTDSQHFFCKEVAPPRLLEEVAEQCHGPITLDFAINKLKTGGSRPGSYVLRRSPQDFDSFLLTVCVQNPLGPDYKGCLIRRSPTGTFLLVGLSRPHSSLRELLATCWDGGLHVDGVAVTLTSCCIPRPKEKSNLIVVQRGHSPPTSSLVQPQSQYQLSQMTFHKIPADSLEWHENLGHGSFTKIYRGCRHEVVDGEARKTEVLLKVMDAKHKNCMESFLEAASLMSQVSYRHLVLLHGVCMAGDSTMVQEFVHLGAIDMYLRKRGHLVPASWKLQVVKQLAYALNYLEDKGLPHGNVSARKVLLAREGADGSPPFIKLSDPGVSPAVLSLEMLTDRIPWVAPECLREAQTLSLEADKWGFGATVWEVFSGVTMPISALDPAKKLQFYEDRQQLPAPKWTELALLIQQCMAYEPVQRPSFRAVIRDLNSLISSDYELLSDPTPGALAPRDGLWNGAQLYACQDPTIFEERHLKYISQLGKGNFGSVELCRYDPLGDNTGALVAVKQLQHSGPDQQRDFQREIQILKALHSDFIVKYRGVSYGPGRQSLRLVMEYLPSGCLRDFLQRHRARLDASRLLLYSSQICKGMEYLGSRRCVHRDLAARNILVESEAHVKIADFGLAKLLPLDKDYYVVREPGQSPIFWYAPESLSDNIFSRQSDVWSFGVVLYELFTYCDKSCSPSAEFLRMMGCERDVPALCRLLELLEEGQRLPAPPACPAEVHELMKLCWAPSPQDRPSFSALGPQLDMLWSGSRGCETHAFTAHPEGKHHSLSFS

Series [4] addresses panel of 255 wild-type kinases (Homo sapiens, UniProt Q14680).
Series [5] concerns the target T2, panel of 255 wild-type kinases (Homo sapiens, UniProt Q9NRM7).
T2 sequence (Q9NRM7 1-1088): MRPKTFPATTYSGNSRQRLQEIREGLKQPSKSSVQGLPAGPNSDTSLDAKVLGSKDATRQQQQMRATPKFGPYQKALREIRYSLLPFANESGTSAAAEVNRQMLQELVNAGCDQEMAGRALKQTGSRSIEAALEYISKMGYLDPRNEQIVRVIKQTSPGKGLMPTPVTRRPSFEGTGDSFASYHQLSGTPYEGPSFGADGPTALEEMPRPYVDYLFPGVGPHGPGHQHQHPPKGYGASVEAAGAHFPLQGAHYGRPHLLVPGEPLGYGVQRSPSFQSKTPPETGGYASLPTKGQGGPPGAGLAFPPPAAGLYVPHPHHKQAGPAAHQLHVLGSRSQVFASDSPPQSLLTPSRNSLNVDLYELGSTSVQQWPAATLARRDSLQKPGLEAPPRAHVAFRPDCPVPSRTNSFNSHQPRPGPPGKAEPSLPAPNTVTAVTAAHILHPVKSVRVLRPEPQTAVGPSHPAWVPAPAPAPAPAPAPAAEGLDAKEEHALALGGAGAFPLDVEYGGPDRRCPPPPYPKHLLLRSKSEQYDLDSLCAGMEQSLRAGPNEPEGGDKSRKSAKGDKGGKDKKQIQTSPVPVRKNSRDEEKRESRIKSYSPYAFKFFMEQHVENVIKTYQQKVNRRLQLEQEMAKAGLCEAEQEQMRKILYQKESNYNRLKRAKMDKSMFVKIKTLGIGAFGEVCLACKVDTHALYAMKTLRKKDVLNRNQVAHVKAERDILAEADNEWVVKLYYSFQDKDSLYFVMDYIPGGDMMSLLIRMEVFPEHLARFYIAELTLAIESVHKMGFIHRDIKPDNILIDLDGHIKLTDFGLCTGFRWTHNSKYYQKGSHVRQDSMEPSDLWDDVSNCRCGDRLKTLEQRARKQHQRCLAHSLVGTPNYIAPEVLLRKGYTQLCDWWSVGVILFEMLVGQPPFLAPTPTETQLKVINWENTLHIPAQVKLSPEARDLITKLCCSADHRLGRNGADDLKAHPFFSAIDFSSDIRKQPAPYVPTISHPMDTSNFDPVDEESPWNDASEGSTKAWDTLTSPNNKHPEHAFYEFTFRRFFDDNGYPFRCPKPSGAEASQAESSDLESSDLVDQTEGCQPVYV

[6] abbreviates: kinase JAK1, 1 µmol/L single concentration, ref DOI: 10.1158/1535-7163.MCT-18-0877.
The mark [7] stands for this setting: kinase CK1δ, 1 µmol/L single concentration, ref DOI: 10.1158/1535-7163.MCT-18-0877.
The mark [8] stands for this setting: kinase JAK3, 1 µmol/L single concentration, ref DOI: 10.1158/1535-7163.MCT-18-0877.
[9] abbreviates: MELK, 1 µmol/L single concentration, ref DOI: 10.1158/1535-7163.MCT-18-0877.
[10] abbreviates: kinase LATS2, 1 µmol/L single concentration, ref DOI: 10.1158/1535-7163.MCT-18-0877.
Setting [11] is: kinase JAK1, 1 µmol/L single concentration, ref DOI: 10.1371/journal.pone.0092146.
Setting [12] is: kinase CK1δ, 1 µmol/L single concentration, ref DOI: 10.1371/journal.pone.0092146.
[13] abbreviates: kinase JAK3, 1 µmol/L single concentration, ref DOI: 10.1371/journal.pone.0092146.
The mark [14] stands for this setting: MELK, 1 µmol/L single concentration, ref DOI: 10.1371/journal.pone.0092146.
The mark [15] stands for this setting: kinase LATS2, 1 µmol/L single concentration, ref DOI: 10.1371/journal.pone.0092146.

Take `CC#CC(=O)N1CCC[C@H]1c1nc(-c2ccc(C(=O)Nc3ccccn3)cc2)c2c(N)nccn12` [acalabrutinib]: in series [1] (setting [6]), the “%-inhibition at 1 µmol/L, JAK1” value is -13%. For the same compound, in series [2] (setting [7]), the “%-inhibition at 1 µmol/L, CK1δ” value was 2.76%. In addition, the “%-inhibition at 1 µmol/L, JAK3” value in series [3] (setting [8]) is recorded as -1%. Further, the “%-inhibition, MELK” value in series [4] (setting [9]) is -0.54%. Also, in series [5] (setting [10]), the “%-inhibition at 1 µmol/L, LATS2” value is -7.45%.

For the compound `CCc1cc2c(cc1N1CCC(N3CCOCC3)CC1)C(C)(C)c1[nH]c3cc(C#N)ccc3c1C2=O` [alectinib], the “%-inhibition at 1 µmol/L, JAK1” value in series [1] (setting [6]) is -10%. Moreover, the “%-inhibition at 1 µmol/L, CK1δ” value in series [2] (setting [7]) is recorded as -5.53%. For the same compound, the “%-inhibition at 1 µmol/L, JAK3” value in series [3] (setting [8]) is given as 5.58%. Moreover, the “%-inhibition, MELK” value in series [4] (setting [9]) is 29%. Besides, the “%-inhibition at 1 µmol/L, LATS2” value in series [5] (setting [10]) is listed as 1.69%.

As to `COc1cc(N2CCC(N3CCN(C)CC3)CC2)ccc1Nc1ncc(Cl)c(Nc2ccccc2P(C)(C)=O)n1` [brigatinib], the “%-inhibition at 1 µmol/L, JAK1” value in series [1] was 31%. For the same compound, the “%-inhibition at 1 µmol/L, CK1δ” value in series [2] is -3.62%. Further, the “%-inhibition at 1 µmol/L, JAK3” value in series [3] is on record as 97%. Besides, in series [4], the “%-inhibition, MELK” value is 49%. Further, in series [5], the “%-inhibition at 1 µmol/L, LATS2” value is 49%.

As for `Cc1cc(Nc2ncc(Cl)c(Nc3ccccc3S(=O)(=O)C(C)C)n2)c(OC(C)C)cc1C1CCNCC1` [ceritinib], the “%-inhibition at 1 µmol/L, JAK1” value in series [1] (setting [6]) is given as -4.51%. In addition, the “%-inhibition at 1 µmol/L, CK1δ” value in series [2] (setting [7]) is reported as -6%. The “%-inhibition at 1 µmol/L, JAK3” value in series [3] (setting [8]) is listed as 2.84%. The “%-inhibition, MELK” value in series [4] (setting [9]) is listed as 4.5%. The “%-inhibition at 1 µmol/L, LATS2” value in series [5] (setting [10]) was 2.29%.

Take `O=C(c1ccc(F)c(F)c1Nc1ccc(I)cc1F)N1CC(O)([C@@H]2CCCCN2)C1` [cobimetinib]: the “%-inhibition at 1 µmol/L, JAK1” value in series [1] (setting [6]) was -8.53%. Also, the “%-inhibition at 1 µmol/L, CK1δ” value in series [2] (setting [7]) is on record as -2.63%. Moreover, in series [3] (setting [8]), the “%-inhibition at 1 µmol/L, JAK3” value is recorded as -3.25%. In series [4] (setting [9]), the “%-inhibition, MELK” value is listed as 2.53%. In series [5] (setting [10]), the “%-inhibition at 1 µmol/L, LATS2” value is recorded as 1.46%.

On to `C[C@@H](Oc1cc(-c2cnn(C3CCNCC3)c2)cnc1N)c1c(Cl)ccc(F)c1Cl` [crizotinib], for which, in series [1] (setting [11]), the “%-inhibition at 1 µmol/L, JAK1” value is listed as 47%. In addition, the “%-inhibition at 1 µmol/L, CK1δ” value in series [2] (setting [12]) is on record as 9%. Also, the “%-inhibition at 1 µmol/L, JAK3” value in series [3] (setting [13]) is recorded as 77%. Also, the “%-inhibition, MELK” value in series [4] (setting [14]) was 5.47%. Moreover, the “%-inhibition at 1 µmol/L, LATS2” value in series [5] (setting [15]) was -6%.

Consider `CC(C)(C)c1nc(-c2cccc(NS(=O)(=O)c3c(F)cccc3F)c2F)c(-c2ccnc(N)n2)s1` [dabrafenib], for which, in series [1] (setting [11]), the “%-inhibition at 1 µmol/L, JAK1” value is recorded as 5.7%. Also, in series [2] (setting [12]), the “%-inhibition at 1 µmol/L, CK1δ” value was 8.51%. In addition, in series [3] (setting [13]), the “%-inhibition at 1 µmol/L, JAK3” value is 22%. Further, the “%-inhibition, MELK” value in series [4] (setting [14]) is on record as 82%. Also, the “%-inhibition at 1 µmol/L, LATS2” value in series [5] (setting [15]) is 0.57%.

As for `C=CC(=O)N1CCC[C@@H](n2nc(-c3ccc(Oc4ccccc4)cc3)c3c(N)ncnc32)C1` [ibrutinib], the “%-inhibition at 1 µmol/L, JAK1” value in series [1] (setting [6]) is reported as -10%. Moreover, the “%-inhibition at 1 µmol/L, CK1δ” value in series [2] (setting [7]) is recorded as 7.46%. The “%-inhibition at 1 µmol/L, JAK3” value in series [3] (setting [8]) was 91%. Also, the “%-inhibition, MELK” value in series [4] (setting [9]) is listed as 8%. For the same compound, the “%-inhibition at 1 µmol/L, LATS2” value in series [5] (setting [10]) is 5.45%.

Regarding `CO[C@@H]1[C@H](N(C)C(=O)c2ccccc2)C[C@H]2O[C@]1(C)n1c3ccccc3c3c4c(c5c6ccccc6n2c5c31)C(=O)NC4` [midostaurin], the “%-inhibition at 1 µmol/L, JAK1” value in series [1] (setting [6]) is recorded as 97%. For the same compound, in series [2], the “%-inhibition at 1 µmol/L, CK1δ” value was -2%. Moreover, in series [3] (setting [8]), the “%-inhibition at 1 µmol/L, JAK3” value was 100%. Also, the “%-inhibition, MELK” value in series [4] (setting [9]) is 95%. Moreover, in series [5] (setting [10]), the “%-inhibition at 1 µmol/L, LATS2” value was 86%.

`C=CC(=O)Nc1cc(Nc2nccc(-c3cn(C)c4ccccc34)n2)c(OC)cc1N(C)CCN(C)C` [osimertinib]: the “%-inhibition at 1 µmol/L, JAK1” value in series [1] (setting [6]) is reported as -6%. The “%-inhibition at 1 µmol/L, CK1δ” value in series [2] (setting [7]) is reported as 7.49%. The “%-inhibition at 1 µmol/L, JAK3” value in series [3] (setting [8]) is reported as 97%. Besides, the “%-inhibition, MELK” value in series [4] (setting [9]) is given as 2.22%. Moreover, the “%-inhibition at 1 µmol/L, LATS2” value in series [5] (setting [10]) is 5%.

With `CC(=O)Nc1cccc(-n2c(=O)n(C3CC3)c(=O)c3c(Nc4ccc(I)cc4F)n(C)c(=O)c(C)c32)c1` [trametinib], the “%-inhibition at 1 µmol/L, JAK1” value in series [1] (setting [11]) is given as -1.83%. In addition, the “%-inhibition at 1 µmol/L, CK1δ” value in series [2] (setting [12]) was 0.365%. In addition, the “%-inhibition at 1 µmol/L, JAK3” value in series [3] (setting [13]) is given as 6%. For the same compound, the “%-inhibition, MELK” value in series [4] (setting [14]) is -0.588%. The “%-inhibition at 1 µmol/L, LATS2” value in series [5] (setting [15]) was 1.87%.

Regarding `CCCS(=O)(=O)Nc1ccc(F)c(C(=O)c2c[nH]c3ncc(-c4ccc(Cl)cc4)cc23)c1F` [vemurafenib], the “%-inhibition at 1 µmol/L, JAK1” value in series [1] (setting [11]) was 46%. In addition, the “%-inhibition at 1 µmol/L, CK1δ” value in series [2] (setting [12]) is -3%. Further, in series [3] (setting [13]), the “%-inhibition at 1 µmol/L, JAK3” value is 10%. In addition, the “%-inhibition, MELK” value in series [4] (setting [14]) is given as 4%. The “%-inhibition at 1 µmol/L, LATS2” value in series [5] (setting [15]) was -2.28%.
